# Columns and labels:
# Type in all cases: in vivo
# [1] = tested on: galium (catchweed bedstraw, Galium aparine); experiment: Test A postemergence application, visual injury rating 0-100
# How it was run: (§1)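 Plants in a loam and sand soil blend were treated with each test chemical, in a non-phytotoxic solvent system including surfactant, either sprayed on seeded soil before emergence or applied after emergence at the one- to two-leaf stage. Ten days later in the greenhouse, plants were compared with untreated controls and visually rated from 0 (no effect) to 100 (complete control).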
# [2] = tested on: ragweed (common ragweed, Ambrosia artemisiifolia); experiment: as above
# How it was run: as §1
# [3] = tested on: oat, wild (wild oat, Avena fatua); experiment: as above
# How it was run: as §1
# [4] = tested on: green foxtail (Setaria viridis); experiment: as above
# How it was run: as §1
# soybean (Glycine max) [5] = experiment: as above
# How it was run: as §1
# corn (Zea mays) [6] = experiment: as above
# How it was run: as §1
# [7] = tested on: ryegrass, Italian (italian ryegrass, Lolium multiflorum); experiment: as above
# How it was run: as §1
# [8] = tested on: blackgrass (Alopecurus myosuroides); experiment: as above
# How it was run: as §1
# [9] = tested on: palmer (palmer amaranth, palmer pigweed, Amaranthus palmeri); experiment: as above
# How it was run: as §1
# [10] = tested on: wheat (Triticum aestivum); experiment: as above
# How it was run: as §1
# kochia (Bassia scoparia) [11] = experiment: as above
# How it was run: as §1
# [12] = tested on: barnyardgrass (Echinochloa crus-galli); experiment: as above
# How it was run: as §1
# [13] = tested on: horseweed (Erigeron canadensis); experiment: as above
# How it was run: as §1
# [14] = tested on: sedge, umbrella (small-flower umbrella sedge, Cyperus difformis); experiment: Test B flooded paddy test, visual plant response rating 0-100; conditions: 250 g ai/ha, Flood, applied to paddy water, evaluated after 13 days
# How it was run: (§2)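 Visual evaluation after 13 days. Water-applied treatment, 3 cm flood depth held constant, plants at 2-leaf stage at treatment.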
# [15] = tested on: barnyardgrass (Echinochloa crusgalli); experiment: as above; conditions: 250 g ai/ha, Flood, applied to paddy water, evaluated after 13 days
# How it was run: as §2
# rice (Oryza sativa) = experiment: as above; conditions: 250 g ai/ha, Flood, applied to paddy water, evaluated after 13 days
# How it was run: as §2
# [16] = tested on: ducksalad (Heteranthera limosa); experiment: as above; conditions: 250 g ai/ha, Flood, applied to paddy water, evaluated after 13 days
# How it was run: as §2
# [17] = tested on: ragweed (common ragweed, Ambrosia artemisiifolia); experiment: Test A preemergence soil spray, visual injury rating 0-100; conditions: 10 days
# How it was run: as §1
# [18] = tested on: oat, wild (wild oat, Avena fatua); experiment: as above; conditions: 10 days
# How it was run: as §1
# [19] = tested on: green foxtail (Setaria viridis); experiment: as above; conditions: 10 days
# How it was run: as §1
# soybean (Glycine max) [20] = experiment: as above; conditions: 10 days
# How it was run: as §1
# corn (Zea mays) [21] = experiment: as above; conditions: 10 days
# How it was run: as §1
# [22] = tested on: ryegrass, Italian (italian ryegrass, Lolium multiflorum); experiment: as above; conditions: 10 days
# How it was run: as §1
# [23] = tested on: blackgrass (Alopecurus myosuroides); experiment: as above; conditions: 10 days
# How it was run: as §1
# [24] = tested on: palmer (palmer amaranth, palmer pigweed, Amaranthus palmeri); experiment: as above; conditions: 10 days
# How it was run: as §1
# [25] = tested on: wheat (Triticum aestivum); experiment: as above; conditions: 10 days
# How it was run: as §1
# kochia (Bassia scoparia) [26] = experiment: as above; conditions: 10 days
# How it was run: as §1
# [27] = tested on: barnyardgrass (Echinochloa crus-galli); experiment: as above; conditions: 10 days
# How it was run: as §1
# [28] = 62 g ai/ha, postemergence, 10 days, 0 = no effect, 100 = complete control
# [29] = Postemergence, 16 g ai/ha, greenhouse 10 days, 0 no effect, 100 complete control
# [30] = 62 g ai/ha, 0 = no effect, 100 = complete control
smiles,measurement,setting,value
C=CC1(C(=O)NC2CC(C(=O)OC)C2)CN(c2cc(F)cc(F)c2)C(=O)O1 (stereo not shown) [Compound 175],Galium plant response rating (0-100),[1]; [28],90
same,Galium plant response rating (0 to 100 scale),[1]; [29],90
same,Ragweed plant response rating (0-100),[2]; [28],0
same,Ragweed plant response rating (0 to 100 scale),[2]; [29],0
same,"Oat, Wild plant response rating (0-100)",[3]; [28],80
same,"Oat, Wild plant response rating (0 to 100 scale)",[3]; [29],60
same,"Foxtail, Green plant response rating (0-100)",[4]; [28],90
same,"Foxtail, Green plant response rating (0 to 100 scale)",[4]; [29],30
same,Soybean plant response rating (0-100),soybean (Glycine max) [5]; [28],60
same,Soybean plant response rating (0 to 100 scale),soybean (Glycine max) [5]; [29],0
same,Corn plant response rating (0-100),corn (Zea mays) [6]; [28],20
same,Corn plant response rating (0 to 100 scale),corn (Zea mays) [6]; [29],0
same,"Ryegrass, Italian plant response rating (0-100)",[7]; [28],100
same,"Ryegrass, Italian plant response rating (0 to 100 scale)",[7]; [29],70
same,Blackgrass plant response rating (0-100),[8]; [28],90
same,Blackgrass plant response rating (0 to 100 scale),[8]; [29],60
same,"Pigweed, Palmer plant response rating (0-100)",[9]; [28],10
same,"Pigweed, Palmer plant response rating (0 to 100 scale)",[9]; [29],0
same,Wheat plant response rating (0-100),[10]; [28],70
same,Wheat plant response rating (0 to 100 scale),[10]; [29],30
same,Kochia plant response rating (0-100),kochia (Bassia scoparia) [11]; [28],0
same,Kochia plant response rating (0 to 100 scale),kochia (Bassia scoparia) [11]; [29],0
same,Barnyardgrass plant response rating (0-100),[12]; [28],70
same,Barnyardgrass plant response rating (0 to 100 scale),[12]; [29],0
same,Horseweed plant response rating (0-100),[13]; [28],0
same,Horseweed plant response rating (0 to 100 scale),[13]; [29],0
same,"Plant response rating, Sedge, Umbrella (0 to 100 scale, 0 is no effect and 100 is complete control)",[14],0
same,"Plant response rating, Barnyardgrass (0 to 100 scale, 0 is no effect and 100 is complete control)",[15],0
same,"Plant response rating, Rice (0 to 100 scale, 0 is no effect and 100 is complete control)",rice (Oryza sativa),0
same,"Plant response rating, Ducksalad (0 to 100 scale, 0 is no effect and 100 is complete control)",[16],0
same,Ragweed plant response rating,"[17]; 16 g ai/ha, 0 to 100 scale",0
same,Ragweed plant response rating (0-100),[17]; [30],0
same,"Oat, Wild plant response rating","[18]; 16 g ai/ha, 0 to 100 scale",0
same,"Oat, Wild plant response rating (0-100)",[18]; [30],0
same,"Foxtail, Green plant response rating","[19]; 16 g ai/ha, 0 to 100 scale",0
same,"Foxtail, Green plant response rating (0-100)",[19]; [30],90
same,Soybean plant response rating,"soybean (Glycine max) [20]; 16 g ai/ha, 0 to 100 scale",0
same,Soybean plant response rating (0-100),soybean (Glycine max) [20]; [30],0
same,Corn plant response rating,"corn (Zea mays) [21]; 16 g ai/ha, 0 to 100 scale",0
same,Corn plant response rating (0-100),corn (Zea mays) [21]; [30],0
same,"Ryegrass, Italian plant response rating","[22]; 16 g ai/ha, 0 to 100 scale",10
same,"Ryegrass, Italian plant response rating (0-100)",[22]; [30],90
same,Blackgrass plant response rating,"[23]; 16 g ai/ha, 0 to 100 scale",40
same,Blackgrass plant response rating (0-100),[23]; [30],60
same,"Pigweed, Palmer plant response rating","[24]; 16 g ai/ha, 0 to 100 scale",0
same,"Pigweed, Palmer plant response rating (0-100)",[24]; [30],0
same,Wheat plant response rating,"[25]; 16 g ai/ha, 0 to 100 scale",40
same,Wheat plant response rating (0-100),[25]; [30],90
same,Kochia plant response rating,"kochia (Bassia scoparia) [26]; 16 g ai/ha, 0 to 100 scale",0
same,Kochia plant response rating (0-100),kochia (Bassia scoparia) [26]; [30],0
same,Barnyardgrass plant response rating,"[27]; 16 g ai/ha, 0 to 100 scale",0
same,Barnyardgrass plant response rating (0-100),[27]; [30],50
